The record followed here is paper PMC7613620, “Reaction hijacking of tyrosine tRNA synthetase as a whole-of-life-cycle antimalarial strategy” (Science (New York, N.Y.), 2022).

pIC50: −log10 of the molar value.

For one assay, the target named is PfYRS (Plasmodium falciparum, UniProt Q8IAR7). The assay is described as follows: Tyrosine acylation of cognate tRNATyr by PfYRS. The assay is classed as biochemical.
Assay [1] concerns the target T1, HsYRS (Homo sapiens, UniProt P54577).
T1 construct: made in house; host or cells: E. coli BL21(DE3), pET-11a
T1 sequence (P54577 1-364): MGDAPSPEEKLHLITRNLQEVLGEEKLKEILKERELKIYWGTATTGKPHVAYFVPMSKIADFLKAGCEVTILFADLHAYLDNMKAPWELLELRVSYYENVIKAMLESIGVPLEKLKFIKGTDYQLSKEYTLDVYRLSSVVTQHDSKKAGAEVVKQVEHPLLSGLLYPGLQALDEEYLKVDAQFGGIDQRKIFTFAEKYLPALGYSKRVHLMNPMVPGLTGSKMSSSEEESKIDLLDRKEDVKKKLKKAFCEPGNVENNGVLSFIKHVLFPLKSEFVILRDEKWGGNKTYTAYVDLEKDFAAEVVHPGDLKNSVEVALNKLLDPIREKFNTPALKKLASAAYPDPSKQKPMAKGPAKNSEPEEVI
The assay is described as follows: Differential scanning fluorimetry, HsYRS. Format: binding. As to conditions: in the presence of ML901 plus substrates. On the procedure:
This DNA template and its complementary strand were custom-synthesized by Sigma-
810 (HiScribe™ T7 Quick High Yield RNA Synthesis Kit, NEB). On the following day, the reaction mixture
820 was sealed and analysed using StepOnePlus Real-Time PCR system (Applied Biosystems). The samples
The thermal unfolding curve was plotted
The melting temperature (Tm), defined as the
Reactions were conducted in 50 mM Tris-
Reactions were conducted in 50 mM Tris-HCL, pH 7.6,

The target of assay [2] is T1, HsYRS. As to the kind of experiment: Tyrosine acylation of cognate tRNATyr by HsYRS. The assay is classed as biochemical. Particulars: YRS 0.25 μM, ATP 10 μM, 37°C 1 h.

Chain of PfYRS (Q8IAR7 entry or part of it): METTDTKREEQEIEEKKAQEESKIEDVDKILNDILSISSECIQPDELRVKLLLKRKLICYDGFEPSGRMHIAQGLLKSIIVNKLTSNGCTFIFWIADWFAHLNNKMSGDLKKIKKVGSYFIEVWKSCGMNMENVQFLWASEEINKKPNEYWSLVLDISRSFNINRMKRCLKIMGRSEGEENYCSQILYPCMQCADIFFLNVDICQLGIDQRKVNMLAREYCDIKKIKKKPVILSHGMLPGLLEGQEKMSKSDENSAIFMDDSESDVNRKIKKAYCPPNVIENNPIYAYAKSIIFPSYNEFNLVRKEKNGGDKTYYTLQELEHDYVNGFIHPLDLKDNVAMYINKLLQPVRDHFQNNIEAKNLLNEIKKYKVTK

Consider `Nc1ncnc2c1c(OC(F)F)nn2[C@@H]1O[C@H](COS(N)(=O)=O)[C@@H](O)[C@H]1O` [ML901], for which the values for the pIC50 at PfYRS and against HsYRS [2] were 4.28 and less than 3.30, respectively. Further, at HsYRS [1], the “thermal stabilization of HsYRS” value is “not stabilized”.
